Data reported in ChEMBL document CHEMBL3046925, “,-Dibromoacetophenones mediated synthesis of some new 7H-7-alkoxy-3-alkyl/phenyl-6-aryl-s-triazolo[3,4-b][1,3,4]thiadiazines and their antimicrobial evaluation” (2012).
≈ marks a conversion by molar mass, not a printed value. Calls of active or inactive are those of the source. The calls are words filed in the database; no cut-off is given here.

Experiments:
Saccharomyces cerevisiae [1] = assay: Antimicrobial activity against Saccharomyces cerevisiae MTCC 170 after 24 hr by two-fold serial dilution method; type: functional
Bacillus subtilis [2] = assay: microbe, parasite or virus in culture; type: functional; conditions: MTCC 121, 24 h
Description: (§1) Antimicrobial activity against Bacillus subtilis MTCC 121 at 2 mg/ml after 24 hr by two-fold serial dilution method

Candida albicans [3] = assay: Antimicrobial activity against Candida albicans MTCC 227 at 2 mg/ml by two-fold serial dilution method; type: functional
Staphylococcus aureus [4] = assay: Antimicrobial activity against Staphylococcus aureus MTCC 96 after 24 hr by two-fold serial dilution method; type: functional; conditions: MTCC 96, 24 h
Candida albicans [5] = assay: Antimicrobial activity against Candida albicans MTCC 227 at 2 mg/ml by agar well diffusion method; type: functional; conditions: for zone of inhibition at 2000 µg/mL: read-out: DIZ
Saccharomyces cerevisiae [6] = assay: Antimicrobial activity against Saccharomyces cerevisiae MTCC 170 at 2 mg/ml after 24 hr by agar well diffusion method; type: functional; conditions: for zone of inhibition at 2000 µg/mL: MTCC 170, 24 h, read-out: DIZ
Pseudomonas aeruginosa = assay: Antimicrobial activity against Pseudomonas aeruginosa MTCC 741 at 2 mg/ml after 24 hr by agar well diffusion method; type: functional, organism-based
Escherichia coli = assay: Antimicrobial activity against Escherichia coli MTCC 1652 at 2 mg/ml after 24 hr by agar well diffusion method; type: functional, organism-based
Staphylococcus aureus [7] = assay: Antimicrobial activity against Staphylococcus aureus MTCC 96 at 2 mg/ml after 24 hr by agar well diffusion method; type: functional; conditions: MTCC 96, 24 h, read-out: DIZ
Bacillus subtilis [8] = assay: microbe, parasite or virus in culture; type: functional; conditions: MTCC 121, 24 h, read-out: DIZ
Description: (§2) Antimicrobial activity against Bacillus subtilis MTCC 121 at 2 mg/ml after 24 hr by agar well diffusion method

Bacillus subtilis [9] = conditions: MTCC 121
Description: as §1

Staphylococcus aureus [10] = conditions: MTCC 96
Staphylococcus aureus [11] = conditions: MTCC 96; remark: listed apart in the source
Bacillus subtilis [12] = conditions: MTCC 121; remark: listed apart in the source
Description: as §2

Compound | MIC (Saccharomyces cerevisiae [1]; MTCC 170, 24 h) | MIC (Bacillus subtilis [2]) | MIC (Candida albicans [3]) | MIC (Staphylococcus aureus [4]) | MIC (Saccharomyces cerevisiae [1]) | MIC (Bacillus subtilis [9]) | MIC (Staphylococcus aureus [10]) | diameter of the inhibition zone (DIZ) (Candida albicans [5]) | zone of inhibition at 2000 µg/mL (Saccharomyces cerevisiae [6]) | Activity (Pseudomonas aeruginosa) | Activity (Escherichia coli) | zone of inhibition at 2000 µg/mL (Staphylococcus aureus [7]) | zone of inhibition at 2000 µg/mL (Bacillus subtilis [8]) | zone of inhibition at 2000 µg/mL (Candida albicans [5]) | diameter of the inhibition zone (DIZ) (Saccharomyces cerevisiae [6]) | DIZ (Staphylococcus aureus [11]) | DIZ (Bacillus subtilis [12])
CCOC1Sc2nnc(CC)n2N=C1c1ccc(C)cc1 (stereo not drawn) | > 256 µg/mL | 128 µg/mL (≈ 423 µM) | inactive | > 256 µg/mL | – | – | – | inactive | 10.6 mm | inactive | inactive | 12.3 mm | 17 mm | – | – | – | –
CCOC1Sc2nncn2N=C1c1ccccc1 (stereo not drawn) | 128 µg/mL (≈ 492 µM) | 64 µg/mL (≈ 246 µM) | inactive | 128 µg/mL (≈ 492 µM) | – | – | – | – | 13.6 mm | inactive | inactive | 16.3 mm | 20.3 mm | 13.6 mm | – | – | –
CCOC1Sc2nnc(CC)n2N=C1c1ccc(Br)cc1 (stereo not drawn) | – | 256 µg/mL (≈ 697 µM) | inactive | > 256 µg/mL | inactive | – | – | inactive | – | inactive | inactive | 12.3 mm | 13.6 mm | – | inactive | – | –
COC1Sc2nnc(-c3ccccc3)n2N=C1c1ccccc1 (stereo not drawn) | 32 µg/mL (≈ 99.3 µM) | 64 µg/mL (≈ 199 µM) | inactive | 16 µg/mL (≈ 49.6 µM) | – | – | – | inactive | 18.6 mm | inactive | inactive | 25.6 mm | 18 mm | – | – | – | –
CCCOC1Sc2nnc(CC)n2N=C1c1ccc(Cl)cc1 (stereo not drawn) | > 256 µg/mL | 128 µg/mL (≈ 380 µM) | inactive | > 256 µg/mL | – | – | – | inactive | 10.3 mm | inactive | inactive | 12.6 mm | 16.3 mm | – | – | – | –
CCOC1Sc2nnc(CC)n2N=C1c1ccc([N+](=O)[O-])cc1 (stereo not drawn) | 64 µg/mL (≈ 192 µM) | – | 128 µg/mL (≈ 384 µM) | – | – | inactive | inactive | – | 15.6 mm | inactive | inactive | – | – | 13.3 mm | – | inactive | inactive
CCOC1Sc2nnc(-c3ccccc3)n2N=C1c1ccccc1 (stereo not drawn) | 32 µg/mL (≈ 95.1 µM) | 128 µg/mL (≈ 380 µM) | 64 µg/mL (≈ 190 µM) | 16 µg/mL (≈ 47.6 µM) | – | – | – | – | 17.6 mm | inactive | inactive | 24.3 mm | 17.6 mm | 15.6 mm | – | – | –
CCOC1Sc2nnc(CC)n2N=C1c1ccc(F)cc1 (stereo not drawn) | 128 µg/mL (≈ 418 µM) | – | 128 µg/mL (≈ 418 µM) | – | – | inactive | inactive | – | 13.6 mm | inactive | inactive | – | – | 13 mm | – | inactive | inactive
CCCOC1Sc2nnc(-c3ccccc3)n2N=C1c1ccccc1 (stereo not drawn) | 64 µg/mL (≈ 183 µM) | 128 µg/mL (≈ 365 µM) | inactive | 64 µg/mL (≈ 183 µM) | – | – | – | inactive | 17.3 mm | inactive | inactive | 20.6 mm | 17.3 mm | – | – | – | –
CCCOC1Sc2nncn2N=C1c1ccccc1 (stereo not drawn) | – | 64 µg/mL (≈ 233 µM) | inactive | 128 µg/mL (≈ 467 µM) | inactive | – | – | inactive | – | inactive | inactive | 15.6 mm | 18.3 mm | – | inactive | – | –
COC1Sc2nncn2N=C1c1ccccc1 (stereo not drawn) | 128 µg/mL (≈ 520 µM) | 64 µg/mL (≈ 260 µM) | 128 µg/mL (≈ 520 µM) | 64 µg/mL (≈ 260 µM) | – | – | – | – | 13.6 mm | inactive | inactive | 19.6 mm | 18.6 mm | 13.3 mm | – | – | –
C[C@@H]1[C@H](O)[C@@H](C)/C=C/C=C/C=C/C=C/C=C/C=C/C=C/[C@H](O[C@@H]2O[C@H](C)[C@@H](O)[C@H](N)[C@@H]2O)C[C@@H]2O[C@](O)(C[C@@H](O)C[C@@H](O)[C@H](O)CC[C@@H](O)C[C@@H](O)CC(=O)O[C@H]1C)C[C@H](O)[C@H]2C(=O)O [AMPHOTERICIN B] | 100 µg/mL (≈ 108 µM) | – | 100 µg/mL (≈ 108 µM) | – | – | – | – | – | 13.6 mm | – | – | – | – | 14.3 mm | – | – | –
O=C(O)c1cn(C2CC2)c2cc(N3CCNCC3)c(F)cc2c1=O [CIPROFLOXACIN] | – | 5 µg/mL (≈ 15.1 µM) | – | 5 µg/mL (≈ 15.1 µM) | – | – | – | – | – | – | – | 26.6 mm | 24 mm | – | – | – | –
CCc1nnc2n1N=C(c1ccc(Cl)cc1)C(OC)S2 (stereo not drawn) | 128 µg/mL (≈ 415 µM) | 128 µg/mL (≈ 415 µM) | 128 µg/mL (≈ 415 µM) | 64 µg/mL (≈ 207 µM) | – | – | – | – | 12.6 mm | inactive | inactive | 19.3 mm | 16.3 mm | 13 mm | – | – | –

Second part, led by results:

MIC (Saccharomyces cerevisiae [1]; MTCC 170, 24 h) | MIC (Bacillus subtilis [2]) | MIC (Candida albicans [3]) | MIC (Staphylococcus aureus [4]) | MIC (Saccharomyces cerevisiae [1]) | MIC (Bacillus subtilis [9]) | MIC (Staphylococcus aureus [10]) | Compound | diameter of the inhibition zone (DIZ) (Candida albicans [5]) | zone of inhibition at 2000 µg/mL (Saccharomyces cerevisiae [6]) | Activity (Pseudomonas aeruginosa) | Activity (Escherichia coli) | zone of inhibition at 2000 µg/mL (Staphylococcus aureus [7]) | zone of inhibition at 2000 µg/mL (Bacillus subtilis [8]) | zone of inhibition at 2000 µg/mL (Candida albicans [5]) | diameter of the inhibition zone (DIZ) (Saccharomyces cerevisiae [6]) | DIZ (Staphylococcus aureus [11]) | DIZ (Bacillus subtilis [12])
128 µg/mL (≈ 467 µM) | 256 µg/mL (≈ 933 µM) | inactive | 256 µg/mL (≈ 933 µM) | – | – | – | CC(C)OC1Sc2nncn2N=C1c1ccccc1 (stereo not drawn) | inactive | 13.3 mm | inactive | inactive | 14.6 mm | 13.6 mm | – | – | – | –
– | 256 µg/mL (≈ 809 µM) | inactive | > 256 µg/mL | inactive | – | – | CCCc1nnc2n1N=C(c1ccccc1)C(OC(C)C)S2 (stereo not drawn) | inactive | – | inactive | inactive | 12.3 mm | 14.6 mm | – | inactive | – | –
64 µg/mL (≈ 233 µM) | 32 µg/mL (≈ 117 µM) | 64 µg/mL (≈ 233 µM) | 32 µg/mL (≈ 117 µM) | – | – | – | CCc1nnc2n1N=C(c1ccccc1)C(OC)S2 (stereo not drawn) | – | 15.3 mm | inactive | inactive | 22.3 mm | 21.6 mm | 16.3 mm | – | – | –
– | 256 µg/mL (≈ 847 µM) | inactive | 256 µg/mL (≈ 847 µM) | inactive | – | – | CCCOC1Sc2nnc(CC)n2N=C1c1ccccc1 (stereo not drawn) | inactive | – | inactive | inactive | 14 mm | 13.6 mm | – | inactive | – | –
128 µg/mL (≈ 365 µM) | 256 µg/mL (≈ 730 µM) | inactive | 128 µg/mL (≈ 365 µM) | – | – | – | CC(C)OC1Sc2nnc(-c3ccccc3)n2N=C1c1ccccc1 (stereo not drawn) | inactive | 13.3 mm | inactive | inactive | 18.3 mm | 15.6 mm | – | – | – | –
64 µg/mL (≈ 202 µM) | 128 µg/mL (≈ 405 µM) | inactive | 256 µg/mL (≈ 809 µM) | – | – | – | CCCOC1Sc2nnc(CCC)n2N=C1c1ccccc1 (stereo not drawn) | inactive | 15.3 mm | inactive | inactive | 13.6 mm | 16.3 mm | – | – | – | –
– | 128 µg/mL (≈ 423 µM) | inactive | 256 µg/mL (≈ 847 µM) | inactive | – | – | CCCc1nnc2n1N=C(c1ccccc1)C(OCC)S2 (stereo not drawn) | inactive | – | inactive | inactive | 13.6 mm | 17.6 mm | – | inactive | – | –
– | 64 µg/mL (≈ 222 µM) | inactive | 256 µg/mL (≈ 888 µM) | inactive | – | – | CCOC1Sc2nnc(CC)n2N=C1c1ccccc1 (stereo not drawn) | inactive | – | inactive | inactive | 13.6 mm | 18.3 mm | – | inactive | – | –
> 256 µg/mL | > 256 µg/mL | inactive | > 256 µg/mL | – | – | – | CCc1nnc2n1N=C(c1ccc(Cl)cc1)C(OC(C)C)S2 (stereo not drawn) | inactive | 11.3 mm | inactive | inactive | 11.3 mm | 12.3 mm | – | – | – | –
– | > 256 µg/mL | inactive | 256 µg/mL (≈ 847 µM) | inactive | – | – | CCc1nnc2n1N=C(c1ccccc1)C(OC(C)C)S2 (stereo not drawn) | inactive | – | inactive | inactive | 13.6 mm | 12.3 mm | – | inactive | – | –
256 µg/mL (≈ 888 µM) | 64 µg/mL (≈ 222 µM) | inactive | 128 µg/mL (≈ 444 µM) | – | – | – | CCCc1nnc2n1N=C(c1ccccc1)C(OC)S2 (stereo not drawn) | inactive | 12.6 mm | inactive | inactive | 16 mm | 18.3 mm | – | – | – | –
